Test results: PubChem BioAssay (NCI)
“And” between values parts separate entries of the source, which are not always exact repeats. Equal values may be shown once.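 Briefly, cells in 96-well plates were exposed to five compound concentrations for 48 h, and endpoints were estimated by linear interpolation. GI50 marks 50% less growth. TGI: total growth inhibition.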

Assays:
Assay in all cases: NCI anticancer screen, dose series, 48 h
HOP-62 NSCLC = test system: HOP-62 NSCLC
K-562 leukemia = test system: K-562 leukemia
NCI-H23 lung = test system: NCI-H23 lung
PC-3 prostate = test system: PC-3 prostate
SF-295 CNS = test system: SF-295 CNS
SN12C renal = test system: SN12C renal
SNB-19 CNS = test system: SNB-19 CNS
SW-620 colon = test system: SW-620 colon
SNB-78 CNS = test system: SNB-78 CNS

Compound | GI50 (HOP-62 NSCLC) | TGI (HOP-62 NSCLC) | GI50 (K-562 leukemia) | TGI (K-562 leukemia) | GI50 (NCI-H23 lung) | TGI (NCI-H23 lung) | GI50 (PC-3 prostate) | TGI (PC-3 prostate) | GI50 (SF-295 CNS) | TGI (SF-295 CNS) | GI50 (SN12C renal) | TGI (SN12C renal) | GI50 (SNB-19 CNS) | TGI (SNB-19 CNS) | GI50 (SW-620 colon) | TGI (SW-620 colon) | TGI (SNB-78 CNS)
NC(=S)N/N=C1\c2cc(Cl)ccc2-c2c1cc(Cl)cc2[N+](=O)[O-] | 7.12 µM | 74.7 µM | 4.76 µM | > 100 µM | 3.86 µM | > 100 µM | 3.21 µM | > 100 µM | 3.57 µM | 73.7 µM | 4.58 µM | > 100 µM | 4.24 µM | > 100 µM | 10.7 µM | > 100 µM | –
c1ccc(Nc2ncc(-c3ccccc3)o2)cc1 | > 25 µM | > 25 µM | > 25 µM | > 25 µM | > 25 µM | > 25 µM | > 23.2 µM | > 25 µM | > 25 µM | > 25 µM | > 25 µM | > 25 µM | > 25 µM | > 25 µM | > 25 µM | > 25 µM | –
CCNC(=O)C#Cc1ccc2c(C(=Nc3ccc(CN(C)C)cc3)c3ccccc3)c(O)[nH]c2c1 | 0.109 µM | > 3.76 µM | 0.344 µM | 3.92 µM | 0.0614 µM | > 4.28 µM | 0.238 µM | > 4.79 µM | 0.249 µM | 3.31 µM | 0.0671 µM | 1.59 µM | 0.206 µM | > 5.9 µM | 0.0156 µM | 1.54 µM | –
CC(=O)OCc1ccc2c(c1)C(O)NC(=O)O2 (stereo not drawn) | – | > 100 µM | – | > 100 µM | – | > 100 µM | – | > 100 µM | – | > 100 µM | – | > 100 µM | – | > 100 µM | – | > 100 µM | –
C=CC(=O)Nc1cc(Nc2nccc(-c3cn(C)c4ccccc34)n2)c(OC)cc1N(C)CCN(C)C | 4.07 µM and 3.58 µM | 18.3 µM and > 10 µM | 1.73 µM and 0.349 µM | 5.2 µM and 1.73 µM | 4.76 µM and 3.39 µM | 17.9 µM and > 10 µM | 2.74 µM and 2.11 µM | 12.1 µM and 5.55 µM | 2.76 µM and 2.02 µM | 8.31 µM and 4.61 µM | 2.2 µM and 1.2 µM | 8.58 µM and 4.36 µM | 2.69 µM and 2.06 µM | 18.4 µM and > 10 µM | 1.83 µM | 3.76 µM and 4.43 µM | –
COc1ccc(Cn2c(Br)c3c(c2Br)-c2nc(N)sc2CC3)cc1 | 6.55 µM | 20.5 µM | 2.43 µM | 57.9 µM | 10.6 µM | 38.6 µM | 4.76 µM | 30.1 µM | 3.07 µM | 10.4 µM | 5.47 µM | 21 µM | 8.68 µM | > 100 µM | 3.1 µM | 11.4 µM | –
COCCn1cc(-c2nc(-c3cc4cccnc4[nH]3)cs2)c2cc(OC)ccc21 | 2.2 µM | 9.36 µM | 3.48 µM | > 27.3 µM | 1.5 µM | 10.8 µM | 3.13 µM | 13.3 µM | 2.24 µM | 6.54 µM | 4.64 µM | > 100 µM | 6.48 µM | > 100 µM | 4.04 µM | > 100 µM | –
NC(=S)N/N=C\c1nccc2c(C(F)(F)F)cccc12 | 0.207 µM | 1.4 µM | 0.44 µM | 21.2 µM | 0.446 µM | > 49 µM | 0.351 µM | 15.2 µM | 0.341 µM | 10.3 µM | 0.31 µM | 12.4 µM | 0.382 µM | > 100 µM | 0.463 µM | 17.4 µM | –
N#CCCC[Si]12OCCN(CCO1)CCO2 | – | – | – | > 100 µM | – | > 100 µM | – | – | – | > 100 µM | – | > 100 µM | – | > 100 µM | – | > 100 µM | > 100 µM
OC(c1cc(C(F)(F)F)nc2c(C(F)(F)F)cccc12)C1CCCCN1 (stereo not drawn) | 1.84 µM | 5.13 µM | 3.12 µM | 6.47 µM | 2.85 µM | 11.3 µM | 2.17 µM | 5.88 µM | 2.04 µM | 5.09 µM | 1.78 µM | 3.71 µM | 2.75 µM | 8.22 µM | 1.85 µM | 3.46 µM | –
COc1ccc(C(c2cc(OC)c(OC)c(OC)c2)n2cncn2)cc1O (stereo not drawn) | 0.514 µM | > 100 µM | 0.427 µM | > 100 µM | 0.977 µM | > 100 µM | 0.431 µM | > 100 µM | 0.325 µM | > 100 µM | 0.853 µM | > 100 µM | 0.578 µM | > 100 µM | 0.431 µM | > 100 µM | –
NCCNCCNCCN | > 100 µM | > 100 µM | > 100 µM | > 100 µM | > 100 µM | > 100 µM | > 100 µM | > 100 µM | > 100 µM | > 100 µM | > 100 µM | > 100 µM | > 100 µM | > 100 µM | > 100 µM | > 100 µM | –
COc1c2ccccc2c(OC)c2[nH]c(=O)ccc12 | 2.01 µM | 3.72 µM | 6.39 µM | > 100 µM | 0.925 µM | 3.47 µM | 5.53 µM | > 43.7 µM | 1.44 µM | 3.29 µM | 2.13 µM | > 21.2 µM | 2.02 µM | 4.11 µM | 4.2 µM | > 63.4 µM | –
CC(=O)Nc1cc2ccc(=O)oc2cc1Cl | – | > 100 µM | – | > 100 µM | – | > 100 µM | – | > 100 µM | – | > 100 µM | – | > 100 µM | – | > 100 µM | – | > 100 µM | –
C=C(C)C(=O)O[C@@H]1C[C@@]2(C)O[C@@H]2C[C@H](O)/C(C)=C/[C@H]2OC(=O)C(=C)[C@@H]21 | – | > 100 µM | – | > 100 µM | – | > 100 µM | – | > 100 µM | – | > 100 µM | – | > 100 µM | – | > 100 µM | – | 38.9 µM | –
COc1cc(-c2nc3sccn3c2-c2ccnc(NCCNS(=O)(=O)c3ccc(F)cc3)n2)ccc1F | 4.82 µM | > 100 µM | 1.53 µM | > 100 µM | 2.96 µM | > 100 µM | 0.946 µM | > 100 µM | 2.87 µM | > 100 µM | 1.89 µM | > 100 µM | 5.33 µM | > 100 µM | 5.05 µM | > 100 µM | –
